# System: ALL-SIL
# Experiment: selective drug sensitivity score (sDSS, relative to normal bone marrow) (sDSS (score)); higher = more potent and effective on the cell line relative to normal bone marrow cells
# Settings: 72 h
# 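Note: ALL cell lines in 384-well plates, five doses spanning 10,000-fold, each plate scaled between vehicle and 100 µmol/L benzalkonium chloride controls, sDSS an adapted area-under-curve metric.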
row,Compound,selective drug sensitivity score
1,Cc1ccc(NC(=O)c2ccc(CN3CCN(C)CC3)cc2)cc1Nc1nc(-c2cccnc2)cs1 [Masitinib] (top concentration 10000 nM),11.6
2,CCN(CC)CCCC(C)Nc1c2ccc(Cl)cc2nc2ccc(OC)cc12 (stereo not given) [Mepacrine] (top concentration 50000 nM),-7.3
3,COc1ccc(-c2ccc3ncc4c(c3c2)n(-c2ccc(N3CCNCC3)c(C(F)(F)F)c2)c(=O)n4C)cn1 [NVP-BGT226] (top concentration 1000 nM),2.82
4,COc1nc(N)nc2c1ncn2[C@@H]1O[C@H](CO)[C@@H](O)[C@@H]1O [Nelarabine] (top concentration 10000 nM),-2.82
5,Cc1cn(-c2cc(NC(=O)c3ccc(C)c(Nc4nccc(-c5cccnc5)n4)c3)cc(C(F)(F)F)c2)cn1 [Nilotinib] (top concentration 10000 nM),43.3
6,NC(=O)c1cccc2cn(-c3ccc(C4CCCNC4)cc3)nc12 (stereo not given) [Niraparib] (top concentration 10000 nM),2.88
7,COc1ccc(C[C@H](NC(=O)[C@H](C)NC(=O)CN2CCOCC2)C(=O)N[C@@H](Cc2ccccc2)C(=O)[C@@]2(C)CO2)cc1 [ONX-0914] (top concentration 10000 nM),3.8
8,CC(=O)c1cnc2ccc(-c3cc(Cl)c(O)c(Cl)c3)nc2c1N[C@H]1CC[C@H](CN(C)C)CC1 [OTS167] (top concentration 1000 nM),2.08
9,COC(=O)C[C@](O)(CCCC(C)(C)O)C(=O)O[C@@H]1C(OC)=C[C@]23CCCN2CCc2cc4c(cc2[C@H]13)OCO4 [Omacetaxine] (top concentration 10000 nM),-1.88

# System: CCRF-HSB2
# Experiment: as above
# Settings: 72 h
row,Compound,selective drug sensitivity score
1,CCOC(=O)CCNc1cc(N2CCc3ccccc3CC2)nc(-c2ccccn2)n1 [GSK-J4] (top concentration 100000 nM),-7.18
2,Cc1cc(Nc2cc(CN3CCOCC3)c3nc(C)c(Cc4ccc(Cl)cc4F)n3n2)n[nH]1 [Gandotinib] (top concentration 10000 nM),5.98
3,NC(=O)NO [Hydroxyurea] (top concentration 1000000 nM),6.66
4,Cc1ccc(NC(=O)c2ccc(CN3CCN(C)CC3)cc2)cc1Nc1nccc(-c2cccnc2)n1 [Imatinib] (top concentration 10000 nM),7.96
5,CC(C)NC[C@@H](C(=O)N1CCN(c2ncnc3c2[C@H](C)C[C@H]3O)CC1)c1ccc(Cl)cc1 [Ipatasertib] (top concentration 10000 nM),0.3
6,CCC(C)n1ncn(-c2ccc(N3CCN(c4ccc(OCC5COC(Cn6cncn6)(c6ccc(Cl)cc6Cl)O5)cc4)CC3)cc2)c1=O (stereo not given) [Itraconazole] (top concentration 5000 nM),2.08
7,Cc1sc2c(c1C)C(c1ccc(Cl)cc1)=N[C@@H](CC(=O)OC(C)(C)C)c1nnc(C)n1-2 [JQ1] (top concentration 10000 nM),0.72
8,CCNC(=O)c1noc(-c2cc(C(C)C)c(O)cc2O)c1-c1ccc(CN2CCOCC2)cc1 [Luminespib] (top concentration 1000 nM),6.7
9,O=C(c1cccc(Cl)c1F)N1CCN(Cc2cccc(Nc3nccs3)n2)CC1 [MK-8745] (top concentration 10000 nM),14.1
10,Cc1ccc(NC(=O)c2ccc(CN3CCN(C)CC3)cc2)cc1Nc1nc(-c2cccnc2)cs1 [Masitinib] (top concentration 10000 nM),6.02
11,CCN(CC)CCCC(C)Nc1c2ccc(Cl)cc2nc2ccc(OC)cc12 (stereo not given) [Mepacrine] (top concentration 50000 nM),-4.8
12,COc1ccc(-c2ccc3ncc4c(c3c2)n(-c2ccc(N3CCNCC3)c(C(F)(F)F)c2)c(=O)n4C)cn1 [NVP-BGT226] (top concentration 1000 nM),5.82
13,COc1nc(N)nc2c1ncn2[C@@H]1O[C@H](CO)[C@@H](O)[C@@H]1O [Nelarabine] (top concentration 10000 nM),1.88
14,Cc1cn(-c2cc(NC(=O)c3ccc(C)c(Nc4nccc(-c5cccnc5)n4)c3)cc(C(F)(F)F)c2)cn1 [Nilotinib] (top concentration 10000 nM),12.9
15,NC(=O)c1cccc2cn(-c3ccc(C4CCCNC4)cc3)nc12 (stereo not given) [Niraparib] (top concentration 10000 nM),5.78
16,COc1ccc(C[C@H](NC(=O)[C@H](C)NC(=O)CN2CCOCC2)C(=O)N[C@@H](Cc2ccccc2)C(=O)[C@@]2(C)CO2)cc1 [ONX-0914] (top concentration 10000 nM),9.9
17,CC(=O)c1cnc2ccc(-c3cc(Cl)c(O)c(Cl)c3)nc2c1N[C@H]1CC[C@H](CN(C)C)CC1 [OTS167] (top concentration 1000 nM),13.2
18,COC(=O)C[C@](O)(CCCC(C)(C)O)C(=O)O[C@@H]1C(OC)=C[C@]23CCCN2CCc2cc4c(cc2[C@H]13)OCO4 [Omacetaxine] (top concentration 10000 nM),4.92

# System: COG-LL-394h
# Experiment: as above
# Settings: 72 h
row,Compound,selective drug sensitivity score
1,CCOC(=O)CCNc1cc(N2CCc3ccccc3CC2)nc(-c2ccccn2)n1 [GSK-J4] (top concentration 100000 nM),-9.68
2,Cc1cc(Nc2cc(CN3CCOCC3)c3nc(C)c(Cc4ccc(Cl)cc4F)n3n2)n[nH]1 [Gandotinib] (top concentration 10000 nM),0.88
3,NC(=O)NO [Hydroxyurea] (top concentration 1000000 nM),-1.74
4,Cc1ccc(NC(=O)c2ccc(CN3CCN(C)CC3)cc2)cc1Nc1nccc(-c2cccnc2)n1 [Imatinib] (top concentration 10000 nM),3.06
5,CC(C)NC[C@@H](C(=O)N1CCN(c2ncnc3c2[C@H](C)C[C@H]3O)CC1)c1ccc(Cl)cc1 [Ipatasertib] (top concentration 10000 nM),-0.3
6,CCC(C)n1ncn(-c2ccc(N3CCN(c4ccc(OCC5COC(Cn6cncn6)(c6ccc(Cl)cc6Cl)O5)cc4)CC3)cc2)c1=O (stereo not given) [Itraconazole] (top concentration 5000 nM),1.88
7,Cc1sc2c(c1C)C(c1ccc(Cl)cc1)=N[C@@H](CC(=O)OC(C)(C)C)c1nnc(C)n1-2 [JQ1] (top concentration 10000 nM),-2.88
8,CCNC(=O)c1noc(-c2cc(C(C)C)c(O)cc2O)c1-c1ccc(CN2CCOCC2)cc1 [Luminespib] (top concentration 1000 nM),-5.2
9,O=C(c1cccc(Cl)c1F)N1CCN(Cc2cccc(Nc3nccs3)n2)CC1 [MK-8745] (top concentration 10000 nM),5
10,Cc1ccc(NC(=O)c2ccc(CN3CCN(C)CC3)cc2)cc1Nc1nc(-c2cccnc2)cs1 [Masitinib] (top concentration 10000 nM),3.32
11,CCN(CC)CCCC(C)Nc1c2ccc(Cl)cc2nc2ccc(OC)cc12 (stereo not given) [Mepacrine] (top concentration 50000 nM),-5.7
12,COc1ccc(-c2ccc3ncc4c(c3c2)n(-c2ccc(N3CCNCC3)c(C(F)(F)F)c2)c(=O)n4C)cn1 [NVP-BGT226] (top concentration 1000 nM),-0.48
13,COc1nc(N)nc2c1ncn2[C@@H]1O[C@H](CO)[C@@H](O)[C@@H]1O [Nelarabine] (top concentration 10000 nM),-9.72
14,Cc1cn(-c2cc(NC(=O)c3ccc(C)c(Nc4nccc(-c5cccnc5)n4)c3)cc(C(F)(F)F)c2)cn1 [Nilotinib] (top concentration 10000 nM),0.7
15,NC(=O)c1cccc2cn(-c3ccc(C4CCCNC4)cc3)nc12 (stereo not given) [Niraparib] (top concentration 10000 nM),-2.02
16,COc1ccc(C[C@H](NC(=O)[C@H](C)NC(=O)CN2CCOCC2)C(=O)N[C@@H](Cc2ccccc2)C(=O)[C@@]2(C)CO2)cc1 [ONX-0914] (top concentration 10000 nM),6.2
17,CC(=O)c1cnc2ccc(-c3cc(Cl)c(O)c(Cl)c3)nc2c1N[C@H]1CC[C@H](CN(C)C)CC1 [OTS167] (top concentration 1000 nM),4.08
18,COC(=O)C[C@](O)(CCCC(C)(C)O)C(=O)O[C@@H]1C(OC)=C[C@]23CCCN2CCc2cc4c(cc2[C@H]13)OCO4 [Omacetaxine] (top concentration 10000 nM),13

# Reference: the supplement of paper PMC8967900
